≈ marks a conversion by molar mass, not a printed value. Like-named read-outs stand apart in the source and are kept apart here.
Tests used:
[1] = Solubility of lankacidin-group in β-CD solution (10^-2 Mol/l), shaken 30 minutes to one hour (Example 4); format: physicochemical
Experimental: (§1) Powdery lankacidin C was added to an aqueous solution of cyclodextrin (hereinafter referred to as "CD") to have 4 mg/ml of the lankacidin C contained. After the mixture was stirred with a mixer, it was shaken at 5° C. for 2 hours, and passed through filter paper. The absorbancy of the filtrate was measured at 227-229 nm to determine concentration of the lankacidin C.
The solubility of lankacidin-group in a solution of β-CD (10^-2 Mol/l) were measured in the same manner as that of Example 1 except that the shaking was continued for 30 minutes to one hour.

[2] = Stability of lankacidin A and C in methanolic aqueous solutions, 40° C., HPLC (Example 7); format: physicochemical; conditions: for Residual rate / remaining at 6 h: 10 μg/ml, pH 7.0, 40° C.; for Residual rate: 0 hr; for remaining at 6 h: read-out: Residual rate
Experimental: 5 ml each of a methanolic solution containing lankacidin A or C in a concentration of 100 μg per ml was added to 45 ml each of pH 4.5 and pH 7.0 buffer solutions and a buffer solution containing β-cyclodextrin.
Each mixture was placed in a glass vessel, and then sealed. While the mixtures were kept in the vessel at 40° C., 5 ml each was taken out from time to time and extracted with ethyl acetate. The organic layers were dried over anhydrous sodium sulfate and the concentrations of the lankacidin A or C was measured with high-performance liquid chromatography (HPLC).
Apparatus: Water Associates ALC/GPC 240 (Waters Associates Inc., U.S.A.)
Column: μPoracil 30 cm×3.9 mm.phi.
Eluent: n-Hexane: isopropyl alcohol: acetic acid (75:25:0.2).

[3] = Solubility of inclusion compound in water; format: physicochemical
Experimental: The lankacidin-group is added to each of solutions containing various amounts of cyclodextrin. The minimum concentration of cyclodextrin which dissolves the maximum amount of the lankacidin-group compound and practical concentrations thereof are determined on the basis of amounts of the lankacidin-group compound dissolved in the cyclodextrin solutions. Then, the molar ratio of cyclodextrin to lankacidin-group compound is calculated by the following equation:
Molar ratio=[Molarity of cyclodextrin]:[(Saturation molarity of lankacidin-group compound in a certain concentration of cyclodextrin-solution)-(saturation molarity of lankacidin-group compound in an aqueous solution)].
Moreover, a large amount of the present inclusion compound is dissolved in water and it is kept stably therein. Solubility of the inclusion compound in water is greater than that of landacidin-group compounds in water, when the amount of the inclusion compound dissolved is calculated in terms of lankacidin-group compound, and than saturation concentration of cyclodextrin in water so far as cyclodextrin contained in the inclusion compound is concerned (Table 2).
(1) Solubility of lankacidingroup in water.
(2) Solubility of lankacidingroup in M/100 cyclodextrin solution.
(3) Concentration of cyclodextrin of (2).
(4) Solubility (maximum) of the present inclusion compound (calculated in
terms of lankacidingroup contained) in water.
(5) Concentration of cyclodextrin contained in the inclusion compound of […]

[4] = Solubility of lankacidin C in aqueous cyclodextrin solution, shaken at 5° C. for 2 hours (Example 1); format: physicochemical
Experimental: as §1

St. aureus 209P = assay: Stability of inclusion compound of lankacidin-group (24° C., for 6 days): antibacterial activity by paper disk assay; format: cell-based; conditions: methanol, 100 μg/ml
Experimental: The inclusion compound of the present invention is stable in an aqueous solution, although it splits into lankacidin-group moiety and cyclodextrins moiety, when it is in the form of solution or powder, by contacting it with organic solvents (e.g., ethyl acetate, methyl isobutyl ketone) or various carriers (e.g., silica gel, high-porous resins). […] In comparing the antibacterial activity, concentrations of the inclusion compound are calculated in terms of lankacidin-group compound from which the inclusion compound is prepared.
Stability of inclusion compound of lankacidin-group
*1 Paper disk assay using Trypticase soy agar (Baltimore Biologicals Ltd.
U.S.A.) as test culture media.
*2 1000 μg/ml, Lankacidingroup is stable in methanol.
*3 Aqueous solution of the inclusion compound with cyclodextrin (1000
μg/ml calculated in terms of lankacidingroup)

[5] = Solubility in β-CD solution, shaken 16 hours (Example 3); format: physicochemical
Experimental: as §1
The solubilities of lankacidin A, lankacidin C and lankacidinol in a β-CD solution were measured in the same manner as that of Example 1 except that the shaking was continued for 16 hours.

[6] = Solubility of C8-P and C14-P in CD solution, shaken one hour (Example 2); format: physicochemical
Experimental: as §1
Solubilities of lankacidin C 8-propionate (hereinafter referred to as "C8-P"), and lankacidin C 14-propionate (hereinafter referred to as "C14-P") in a solution of CD were measured in the same manner as that of Example 1 except that the shaking was continued for one hour.

[7] = aqueous β-cd solution, β-CD 10^-2 Mol/l
[8] = aqueous β-cd solution, β-CD 10^-3 Mol/l
[9] = aqueous β-cd solution, β-CD 10^-4 Mol/l
[10] = aqueous γ-cd solution, γ-CD 10^-2 Mol/l
[11] = aqueous γ-cd solution, γ-CD 10^-3 Mol/l
[12] = aqueous γ-cd solution, γ-CD 10^-4 Mol/l
[13] = aqueous β-cyclodextrin solution, β-CD 10^-2 Mol/l, read-out: Solubility
[14] = β-CD 0 Mol/l (water), read-out: Solubility

In the case of `CC(=O)OC1C=CC(C)=CC(NC(=O)C(C)OC(C)=O)C2(C)C(=O)OC(CC(OC(C)=O)C=CC(C)=CC1)C(C)C2=O` (stereo not drawn) [Lankacidinol 2',8,14-triacetate], the “ratio: Solubility in a 10^-2 Mol/l solution of CD/solubility in water” value (from here on “ratio: Solubility”) [1] is reported as 9.0, the solubility ([1]; aqueous β-cyclodextrin solution) is reported as 332 µg/mL (≈ 565 µM) and the solubility ([1]; water) is reported as 36.9 µg/mL (≈ 62.8 µM).
In the case of Iso-lankacidinol, the solubility ([1]; β-CD 0 Mol/l (water)) is reported as 796 µg/mL, the solubility ([1]; β-CD 10^-2 Mol/l) is reported as 3200 µg/mL and the “ratio: Solubility” value ([1]; β-CD 10^-2 Mol/l vs water) is reported as 4.02.
In the case of `CC(=O)C(=O)NC1C=C(C)C=CC(O)CC=C(C)C=CC(O)CC2OC(=O)C1(C)C(=O)C2C` (stereo not drawn) [Lankacidin C, lankacidin C], the Residual rate ([2]; no β-cyclodextrin) is reported as 100%, the Residual rate ([2]; β-cyclodextrin 10 mg/ml) is reported as 100% and the “Effect of β-cyclodextrin on stability in methanolic aqueous solutions” value ([2]; 1000 times β-CD by weight added) is reported as “increased stabilities”. It also gave a remaining at 6 h ([2]; methanolic aqueous buffer, no β-cyclodextrin) of 43.7%, a remaining at 6 h ([2]; methanolic buffer with β-cyclodextrin, β-cyclodextrin 10 mg/ml) of 88.2% and a solubility ([3]; m/100 cyclodextrin solution, M/100 cyclodextrin, (3) cyclodextrin 11.3 mg/ml, read-out: (2) Solubility of lankacidin-group in M/100 cyclodextrin solution) of 3540 µg/mL (≈ 7700 µM). For the same compound, the solubility ([3]; water, read-out: (1) Solubility of lankacidin-group in water) was 268 µg/mL (≈ 583 µM), the solubility at 2 h [4, 7] was 3730 µg/mL (≈ 8120 µM) and the solubility at 2 h [4, 8] was 650 µg/mL (≈ 1410 µM). It also gave a solubility at 2 h [4, 9] of 280 µg/mL (≈ 609 µM), a solubility at 2 h [4, 10] of 2390 µg/mL (≈ 5200 µM) and a solubility at 2 h [4, 11] of 460 µg/mL (≈ 1000 µM). The solubility at 2 h [4, 12] was 260 µg/mL (≈ 566 µM), the solubility at 2 h ([4]; aqueous γ-cyclodextrin solution, γ-CD 10^-1 Mol/l) was 3790 µg/mL (≈ 8250 µM) and the solubility at 2 h ([4]; water, β-CD, CD 0 Mol/l) was 260 µg/mL (≈ 566 µM). For the same compound, the solubility at 2 h ([4]; water, γ-CD, CD 0 Mol/l) was 260 µg/mL (≈ 566 µM), the “Solubility in CD solution” value ([4]; β-CD and γ-CD solution) was “high solubility” and the “Antibacterial activity, inhibition diameter” value (St. aureus 209P; 0 day) was 28.25 mm. For the same compound, the “Antibacterial activity, inhibition diameter” value (St. aureus 209P; 3 days at 24° C.) was 29.5 mm, the “Antibacterial activity, inhibition diameter” value (St. aureus 209P; 6 days at 24° C.) was 29.5 mm and the solubility at 16 h ([5]; aqueous β-cd solution, β-CD 2 × 10^-3 Mol/l) was 934 µg/mL (≈ 2030 µM). For the same compound, the solubility at 16 h ([5]; aqueous β-cd solution, β-CD 2 × 10^-4 Mol/l) was 304 µg/mL (≈ 662 µM), the solubility at 16 h ([5]; aqueous β-cd solution, β-CD 5 × 10^-3 Mol/l) was 1780 µg/mL (≈ 3870 µM) and the solubility at 16 h ([5]; aqueous β-cd solution, β-CD 5 × 10^-4 Mol/l) was 409 µg/mL (≈ 890 µM). It also gave a solubility at 16 h [5, 7] of 3350 µg/mL (≈ 7290 µM), a solubility at 16 h [5, 8] of 566 µg/mL (≈ 1230 µM) and a solubility at 16 h [5, 9] of 262 µg/mL (≈ 570 µM). For the same compound, the “Solubility in β-CD solution as function of β-CD concentration” value ([5]; from the vicinity of 10^-3 Mol/l of β-CD) was “increase in proportion to the concentration of β-CD”, the solubility at 16 h ([5]; water, β-CD 0 Mol/l) was 237 µg/mL (≈ 516 µM) and the solubility ([5]; β-CD 10^-3 Mol/l, 960 min) was 715 µg/mL (≈ 1560 µM).
For `CC(=O)OC1C=CC(C)=CC(NC(=O)C(C)=O)C2(C)C(=O)OC(CC(O)C=CC(C)=CC1)C(C)C2=O` (stereo not drawn) [Lankacidin C 8-acetate, lankacidin C 8-acetate], the solubility [1, 13] was 2770 µg/mL (≈ 5520 µM), the solubility [1, 14] was 74.3 µg/mL (≈ 148 µM) and the “ratio: Solubility” value ([1]; β-CD 10^-2 Mol/l vs water) was 37.3.
`CCC(=O)OC1C=CC(C)=CCC(O)C=CC(C)=CC(NC(=O)C(C)=O)C2(C)C(=O)OC(C1)C(C)C2=O` (stereo not drawn) [C14-P, lankacidin C 14-propionate] showed a solubility at 1 h [6, 7] of 159 µg/mL (≈ 308 µM), a solubility at 1 h [6, 8] of 67 µg/mL (≈ 130 µM) and a solubility at 1 h [6, 9] of 21 µg/mL (≈ 40.7 µM). For the same compound, the solubility at 1 h [6, 10] was 273 µg/mL (≈ 529 µM), the solubility at 1 h [6, 11] was 114 µg/mL (≈ 221 µM) and the solubility at 1 h [6, 12] was 35 µg/mL (≈ 67.9 µM). For the same compound, the solubility at 1 h ([6]; water, β-CD, CD 0 Mol/l) was 19 µg/mL (≈ 36.9 µM) and the solubility at 1 h ([6]; water, γ-CD, CD 0 Mol/l) was 19 µg/mL (≈ 36.9 µM).
In the case of `CCCC(=O)OC1C=CC(C)=CCC(O)C=CC(C)=CC(NC(=O)C(C)=O)C2(C)C(=O)OC(C1)C(C)C2=O` (stereo not drawn) [Lankacidin C 14-butylate], the solubility [1, 13] is reported as 118 µg/mL (≈ 223 µM), the solubility [1, 14] is reported as 17 µg/mL (≈ 32.1 µM) and the “ratio: Solubility” value ([1]; β-CD 10^-2 Mol/l vs water) is reported as 6.94.
In the case of `OC[C@H]1O[C@@H]2O[C@H]3[C@H](O)[C@@H](O)[C@@H](O[C@H]4[C@H](O)[C@@H](O)[C@@H](O[C@H]5[C@H](O)[C@@H](O)[C@@H](O[C@H]6[C@H](O)[C@@H](O)[C@@H](O[C@H]7[C@H](O)[C@@H](O)[C@@H](O[C@H]8[C@H](O)[C@@H](O)[C@@H](O[C@H]1[C@H](O)[C@H]2O)O[C@@H]8CO)O[C@@H]7CO)O[C@@H]6CO)O[C@@H]5CO)O[C@@H]4CO)O[C@@H]3CO` [cyclodextrin, β-cyclodextrin], the “Concentration of cyclodextrin in its saturated aqueous solution” value ([3]; water) is reported as 1000 µg/mL.
